Experimental data from ChEMBL document CHEMBL5465560, “Selectivity Literature for EUbOPEN Chemogenomic Library” (2024).

What was measured:
Conditions in all cases: at 10 µM
Focal adhesion kinase 1 = Focal adhesion kinase 1 (Homo sapiens, UniProt Q05397); assay: Selectivity interaction (Ambit kinase binding assay panel) EUB0000608a PTK2
[1] = target: T1, Serine/threonine-protein kinase PLK4 (Homo sapiens) (UniProt O00444); assay: Selectivity interaction (Ambit kinase binding assay panel) EUB0000608a PLK4
T1 sequence (whole entry): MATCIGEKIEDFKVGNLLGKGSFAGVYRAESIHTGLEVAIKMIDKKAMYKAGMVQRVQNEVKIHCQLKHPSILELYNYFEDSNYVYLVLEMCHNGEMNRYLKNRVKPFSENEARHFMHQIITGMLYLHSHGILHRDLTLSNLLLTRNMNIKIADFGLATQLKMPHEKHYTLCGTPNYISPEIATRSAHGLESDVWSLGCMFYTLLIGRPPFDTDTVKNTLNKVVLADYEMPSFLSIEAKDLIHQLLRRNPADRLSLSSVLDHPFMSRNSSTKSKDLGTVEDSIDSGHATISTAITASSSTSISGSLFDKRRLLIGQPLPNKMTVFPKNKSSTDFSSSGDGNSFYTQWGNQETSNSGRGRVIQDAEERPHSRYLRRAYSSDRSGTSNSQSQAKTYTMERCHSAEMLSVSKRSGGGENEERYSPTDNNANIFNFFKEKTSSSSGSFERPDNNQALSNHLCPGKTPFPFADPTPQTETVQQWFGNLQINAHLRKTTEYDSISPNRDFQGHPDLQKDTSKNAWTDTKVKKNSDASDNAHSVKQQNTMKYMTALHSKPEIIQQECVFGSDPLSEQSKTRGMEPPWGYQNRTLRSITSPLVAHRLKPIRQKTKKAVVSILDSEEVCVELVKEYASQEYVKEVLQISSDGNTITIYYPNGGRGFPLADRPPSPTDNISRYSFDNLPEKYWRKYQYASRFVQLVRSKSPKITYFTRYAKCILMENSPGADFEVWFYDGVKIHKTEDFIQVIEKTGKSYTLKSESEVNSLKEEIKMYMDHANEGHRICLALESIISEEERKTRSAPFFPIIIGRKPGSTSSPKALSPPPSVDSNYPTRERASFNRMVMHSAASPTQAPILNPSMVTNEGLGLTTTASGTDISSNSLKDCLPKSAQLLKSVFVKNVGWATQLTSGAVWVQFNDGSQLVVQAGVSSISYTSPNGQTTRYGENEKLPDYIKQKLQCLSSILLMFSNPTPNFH

[2] = target: T2, Dual specificity protein kinase TTK (Homo sapiens) (UniProt P33981); assay: Selectivity interaction (Ambit kinase binding assay panel) EUB0000608a TTK
T2 sequence (whole entry): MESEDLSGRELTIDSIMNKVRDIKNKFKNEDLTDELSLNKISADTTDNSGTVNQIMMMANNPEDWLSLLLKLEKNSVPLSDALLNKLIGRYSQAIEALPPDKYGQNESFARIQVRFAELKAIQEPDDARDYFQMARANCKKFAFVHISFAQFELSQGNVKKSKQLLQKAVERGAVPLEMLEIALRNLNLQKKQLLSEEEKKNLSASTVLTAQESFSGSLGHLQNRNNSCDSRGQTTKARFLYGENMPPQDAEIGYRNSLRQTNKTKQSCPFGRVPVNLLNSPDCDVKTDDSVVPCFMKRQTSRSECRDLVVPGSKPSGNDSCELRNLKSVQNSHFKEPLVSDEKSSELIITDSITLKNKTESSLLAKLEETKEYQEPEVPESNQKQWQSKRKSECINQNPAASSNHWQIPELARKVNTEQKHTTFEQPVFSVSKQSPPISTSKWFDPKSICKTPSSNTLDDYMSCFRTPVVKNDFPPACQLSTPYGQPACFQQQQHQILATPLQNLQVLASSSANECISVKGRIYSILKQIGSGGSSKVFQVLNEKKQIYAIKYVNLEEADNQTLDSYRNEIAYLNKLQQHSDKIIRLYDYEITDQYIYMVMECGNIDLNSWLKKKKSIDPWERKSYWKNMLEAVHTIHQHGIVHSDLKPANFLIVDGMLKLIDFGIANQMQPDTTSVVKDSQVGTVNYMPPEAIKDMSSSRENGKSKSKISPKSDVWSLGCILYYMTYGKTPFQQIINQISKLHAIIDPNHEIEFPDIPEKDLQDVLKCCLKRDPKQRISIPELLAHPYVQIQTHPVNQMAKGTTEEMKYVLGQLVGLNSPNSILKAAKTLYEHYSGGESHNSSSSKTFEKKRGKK

[3] = target: T3, Cyclin-G-associated kinase (Homo sapiens) (UniProt O14976); assay: Selectivity interaction (Ambit kinase binding assay panel) EUB0000608a GAK
T3 sequence (whole entry): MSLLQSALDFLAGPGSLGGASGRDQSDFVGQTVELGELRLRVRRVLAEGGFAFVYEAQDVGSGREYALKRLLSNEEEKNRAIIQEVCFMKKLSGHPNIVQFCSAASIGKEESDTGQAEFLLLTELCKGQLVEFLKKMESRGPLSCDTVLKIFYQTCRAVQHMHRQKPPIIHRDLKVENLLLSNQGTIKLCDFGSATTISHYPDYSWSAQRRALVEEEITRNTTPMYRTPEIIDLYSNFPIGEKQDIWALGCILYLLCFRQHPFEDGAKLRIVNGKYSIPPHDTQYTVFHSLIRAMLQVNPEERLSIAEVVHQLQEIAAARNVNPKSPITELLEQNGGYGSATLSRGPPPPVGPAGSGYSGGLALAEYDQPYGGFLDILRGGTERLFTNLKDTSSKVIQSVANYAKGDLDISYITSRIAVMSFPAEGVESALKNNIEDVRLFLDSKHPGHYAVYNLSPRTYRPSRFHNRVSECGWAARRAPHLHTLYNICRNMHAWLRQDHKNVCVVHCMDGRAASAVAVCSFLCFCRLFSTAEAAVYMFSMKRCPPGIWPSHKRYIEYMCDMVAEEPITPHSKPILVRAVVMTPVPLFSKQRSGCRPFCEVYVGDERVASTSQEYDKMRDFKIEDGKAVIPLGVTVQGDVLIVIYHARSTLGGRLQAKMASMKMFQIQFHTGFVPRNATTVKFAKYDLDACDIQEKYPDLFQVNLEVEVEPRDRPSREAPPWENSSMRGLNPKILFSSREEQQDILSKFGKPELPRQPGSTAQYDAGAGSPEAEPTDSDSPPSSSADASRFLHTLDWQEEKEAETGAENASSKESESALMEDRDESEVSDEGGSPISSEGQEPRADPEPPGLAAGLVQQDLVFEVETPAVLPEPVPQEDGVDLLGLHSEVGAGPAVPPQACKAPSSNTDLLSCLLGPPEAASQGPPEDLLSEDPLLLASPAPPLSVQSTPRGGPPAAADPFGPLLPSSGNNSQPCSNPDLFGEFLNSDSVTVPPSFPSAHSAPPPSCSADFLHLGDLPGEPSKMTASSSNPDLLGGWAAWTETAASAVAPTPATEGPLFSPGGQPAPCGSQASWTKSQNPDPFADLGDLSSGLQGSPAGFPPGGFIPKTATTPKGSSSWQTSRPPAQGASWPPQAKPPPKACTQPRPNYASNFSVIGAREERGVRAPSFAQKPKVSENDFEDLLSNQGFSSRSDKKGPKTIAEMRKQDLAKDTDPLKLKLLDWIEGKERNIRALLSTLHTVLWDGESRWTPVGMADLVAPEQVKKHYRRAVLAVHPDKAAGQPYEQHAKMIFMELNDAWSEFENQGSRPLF

[4] = target: Receptor-type tyrosine-protein kinase FLT3 (Homo sapiens) (UniProt P36888); assay: Selectivity interaction (Ambit kinase binding assay panel) EUB0000608a FLT3
[5] = target: Serine/threonine-protein kinase PLK3 (Homo sapiens, UniProt Q9H4B4); assay: Selectivity interaction (Ambit kinase binding assay panel) EUB0000608a PLK3
Chain of Serine/threonine-protein kinase PLK3 (Q9H4B4 whole entry, looked up): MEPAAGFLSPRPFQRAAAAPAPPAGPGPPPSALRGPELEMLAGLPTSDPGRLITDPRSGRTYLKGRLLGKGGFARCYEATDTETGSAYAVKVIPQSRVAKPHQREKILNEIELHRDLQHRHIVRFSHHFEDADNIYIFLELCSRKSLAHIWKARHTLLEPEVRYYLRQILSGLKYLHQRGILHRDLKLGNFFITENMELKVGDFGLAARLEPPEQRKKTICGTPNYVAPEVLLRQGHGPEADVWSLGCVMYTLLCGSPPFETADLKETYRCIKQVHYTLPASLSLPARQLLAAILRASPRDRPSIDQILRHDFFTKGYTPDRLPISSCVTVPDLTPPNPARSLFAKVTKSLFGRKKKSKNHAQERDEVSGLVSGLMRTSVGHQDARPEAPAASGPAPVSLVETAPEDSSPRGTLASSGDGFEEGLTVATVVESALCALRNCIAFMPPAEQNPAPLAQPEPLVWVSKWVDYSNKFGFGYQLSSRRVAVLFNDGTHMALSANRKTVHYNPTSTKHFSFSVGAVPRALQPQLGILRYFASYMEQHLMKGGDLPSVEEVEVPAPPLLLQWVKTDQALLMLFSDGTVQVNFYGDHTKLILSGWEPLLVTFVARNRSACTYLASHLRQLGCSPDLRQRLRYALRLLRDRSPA

Chain of Receptor-type tyrosine-protein kinase FLT3 (Homo sapiens) (P36888 whole entry): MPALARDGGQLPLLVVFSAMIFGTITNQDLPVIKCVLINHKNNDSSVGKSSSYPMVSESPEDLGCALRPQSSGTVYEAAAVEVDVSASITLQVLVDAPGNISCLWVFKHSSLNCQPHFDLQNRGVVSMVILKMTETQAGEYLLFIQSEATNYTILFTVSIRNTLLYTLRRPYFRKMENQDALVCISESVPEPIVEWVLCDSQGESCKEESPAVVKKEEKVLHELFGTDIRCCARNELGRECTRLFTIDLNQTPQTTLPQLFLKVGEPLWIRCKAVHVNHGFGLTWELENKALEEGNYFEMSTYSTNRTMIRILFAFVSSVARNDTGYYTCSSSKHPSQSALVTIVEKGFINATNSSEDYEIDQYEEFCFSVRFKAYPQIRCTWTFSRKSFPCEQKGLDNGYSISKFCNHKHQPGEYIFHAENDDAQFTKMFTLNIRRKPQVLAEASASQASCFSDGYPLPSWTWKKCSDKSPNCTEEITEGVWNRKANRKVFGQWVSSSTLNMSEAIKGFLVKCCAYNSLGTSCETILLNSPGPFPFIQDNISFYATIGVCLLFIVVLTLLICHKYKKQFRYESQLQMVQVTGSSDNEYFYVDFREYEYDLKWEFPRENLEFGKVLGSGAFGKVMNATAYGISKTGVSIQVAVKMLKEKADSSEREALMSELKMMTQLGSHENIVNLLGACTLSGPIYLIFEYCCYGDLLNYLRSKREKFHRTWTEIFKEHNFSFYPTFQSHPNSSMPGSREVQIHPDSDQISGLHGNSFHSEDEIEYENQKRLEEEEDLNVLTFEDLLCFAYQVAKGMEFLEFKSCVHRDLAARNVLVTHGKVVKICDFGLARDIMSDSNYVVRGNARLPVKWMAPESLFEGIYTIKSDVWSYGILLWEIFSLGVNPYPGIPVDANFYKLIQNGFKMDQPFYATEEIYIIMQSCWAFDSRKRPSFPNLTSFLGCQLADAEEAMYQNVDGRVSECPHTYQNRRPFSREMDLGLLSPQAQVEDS
Chain of Focal adhesion kinase 1 (Q05397 2-1052 limits assumed): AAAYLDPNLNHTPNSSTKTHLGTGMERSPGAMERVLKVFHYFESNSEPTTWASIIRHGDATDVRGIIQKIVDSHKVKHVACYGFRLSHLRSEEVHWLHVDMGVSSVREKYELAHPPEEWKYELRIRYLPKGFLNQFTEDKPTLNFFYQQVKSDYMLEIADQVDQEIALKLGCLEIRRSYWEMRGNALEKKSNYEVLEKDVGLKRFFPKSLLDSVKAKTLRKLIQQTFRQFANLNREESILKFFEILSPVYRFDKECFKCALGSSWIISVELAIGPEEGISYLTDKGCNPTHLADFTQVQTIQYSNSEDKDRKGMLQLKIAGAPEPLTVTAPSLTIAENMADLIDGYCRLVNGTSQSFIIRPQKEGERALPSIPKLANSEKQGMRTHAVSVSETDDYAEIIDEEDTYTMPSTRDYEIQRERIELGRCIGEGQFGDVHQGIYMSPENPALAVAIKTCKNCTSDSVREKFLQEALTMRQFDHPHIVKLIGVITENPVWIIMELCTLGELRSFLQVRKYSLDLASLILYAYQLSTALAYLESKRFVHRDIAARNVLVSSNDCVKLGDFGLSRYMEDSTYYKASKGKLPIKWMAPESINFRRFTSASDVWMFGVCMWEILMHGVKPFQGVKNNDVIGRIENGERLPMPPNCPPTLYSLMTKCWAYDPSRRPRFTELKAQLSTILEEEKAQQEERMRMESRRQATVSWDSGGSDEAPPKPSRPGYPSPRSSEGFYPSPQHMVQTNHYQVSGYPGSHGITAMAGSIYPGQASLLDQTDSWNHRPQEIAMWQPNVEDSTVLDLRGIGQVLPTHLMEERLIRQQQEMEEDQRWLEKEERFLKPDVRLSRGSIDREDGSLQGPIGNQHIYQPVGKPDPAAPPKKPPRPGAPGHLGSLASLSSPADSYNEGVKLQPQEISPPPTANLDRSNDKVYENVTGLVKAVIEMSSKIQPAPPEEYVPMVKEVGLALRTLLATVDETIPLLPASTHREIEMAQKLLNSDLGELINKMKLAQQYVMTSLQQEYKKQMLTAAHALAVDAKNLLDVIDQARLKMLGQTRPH

% of control (Focal adhesion kinase 1): 24%
% of control [1]: 27%
% of control [2]: 3.2%
% of control [3]: 2%
% of control [4]: 0%
% of control [5]: 15%
Compound: CCOc1cc(N2CCC(O)CC2)ccc1Nc1ncc2c(n1)N(C1CCCC1)CCC(=O)N2C
